This note sets out measurements from patent US20080153792A1, “Drug Identification and Treatment Method” (priority 2006, published 2008).

Marks after values point to notes of the source that are not given here.

Series [1] deals with 8 week old db/db diabetic mice. Kind of series: hyperinsulinemic-euglycemic clamp in db/db mice. In kind it is in vivo, mouse. The conditions noted are these: oral gavage 14 days; insulin 10 mU/kg/min. How it is done:
Glucose lowering in 8 week old db/db diabetic mice. The hyperinsulinemic-euglycemic clamp protocol was conducted to measure insulin sensitivity in vivo. In this procedure, insulin was administered to raise the insulin concentration while glucose was infused to maintain euglycemia or a fixed, normal blood glucose level (about 180 mg/dL). […] The objective of this protocol was to investigate characterize the capacity of 17α-ethynylandrost-5-ene-3β,7β,17β-triol and androst-5-ene-3β,7β,16α,17β-tetrol to ameliorate systemic insulin resistance and improve whole body glucose disposal in the hyperinsulinemic-euglycemic clamp model. The degree of skeletal muscle and hepatic insulin sensitivity and tissue specific glucose uptake were also assessed. The animals were dosed daily by oral gavage for 14 days. On Day 10 of treatment catheters were implanted in the carotid artery and jugular vein. On the day of the clamp (day 14) the compound was administered at 7:30 am.
Body weight and glucose concentration were assessed on day 0, 7 and day 14 of treatment. On day 14 a euglycemic hyperinsulinemic clamp was performed. […] Plasma ^14C 2-deoxyglucose was assessed at 122, 125, 130, 135, 145 min. […]
Analysis was conducted as follows. Plasma samples were deproteinized with Ba(OH)2 (0.3 N) and ZnSO4 (0.3 N), dried and radioactivity was assessed on scintillation counter (Packard TRICARB 2900 TR, Meriden, Conn.). […] One supernatant was directly counted to determine radioactivity from both [14C] […] A second aliquot was treated with Ba(OH)2 and ZnSO4 to remove ^14C DGP and any tracer incorporated into glycogen and then counted to determine radioactivity from free [^14C]DG(2). [^14C]DGP was calculated as the difference between the two aliquots. […] Rg, an index of tissue specific glucose uptake was calculated as previously described (E. W. Kraegen et al., Am. J. Physiol., 248:E353-E362, 1985). Whole body glucose turnover was calculated as the ratio of the ^3H glucose infusion rate (dpm/kg/min) and arterial plasma glucose specific activity (dpm/mg). […]

The subject of series [2] is DBA/1Lac/J mice, collagen induced arthritis. Briefly: collagen induced arthritis (CIA), Foxp3+ cells and clinical score. In kind it is in vivo, mouse. The method, then: Increase of CD4^+CD25^+ T regulatory cells or their activity in vivo. The compound 17α-ethynylandrost-5-ene-3β,7β,17β-triol was administered to mice essentially as described in a previously described collagen induced arthritis animal model. H. Offner et al., Clin. Immunol., 110:181-190, 2006.
DBA/1Lac/J mice were used for the study. The mice were obtained from Jackson Laboratories (Bar Harbor, Harbor, […].) and housed in accordance with applicable institutional guidelines. Bovine type II collagen (bCll) was used to induce collagen induced arthritis (CIA) by immunizing 8-week-old mice with 200 μg of bCII emulsified 1:1 with CFA containing 200 μg Mycobacterium tuberculosis (100 μL; Difco, Detroit, Mich.). The antigen was injected intradermally at the base of the tail. The animals were monitored for 4-7 weeks to observe the onset and progression of the disease post-immunization. The arthritic severity was evaluated with a grading system for each paw according to the following scale: 0=no redness or swelling; 1=slight swelling in ankle or redness in foot; 2=progressed swelling and inflammation and redness from ankle to mid foot; 3=swelling and inflammation of entire foot; 4=swelling and inflammation of entire foot including toes.
After immunization, the mice were treated with the drug at 40 mg/kg/day in vehicle by oral gavage beginning at the start of observable clinical disease (beginning at about 26-27 days after immunization). The vehicle that was used for the protocol was 30% cyclodextrin-sulfobutylether in water. The cyclodextrin-sulfobutylether was obtained commercially (Captisol™ available at cyclexinc.com). The drug formulation was 20 mg drug/mL in the vehicle.

Series [3] in a line: metabolic stability in liver microsomes: rat. The conditions noted are these: 30 min.
Procedure: Metabolic stability. The metabolic stability of selected compounds was examined in vitro using microsomes obtained from liver tissue according to the following protocol.
The protocol was performed as follows. (1) Prepared 0.5 mM compound in acetonitrile/water 35:65. […] (2) Set up samples as follows. […] Tubes for each compound was follows: 1-0′ 2-0′ 3-0′ 4-0′* 5-0′* 6-5 μM 7-1 μM 8-30′ 9-30′ 10-30′ where * designated denatured microsome negative control reaction tubes. For additional compounds numbering was started at 11, 21, 31, etc. (3) Added 315 μL PBS (pH 7.3-7.5) to each tube. Added 10 μL of the appropriate test article solution to each tube. (4) The internal standard/acetonitrile solution. (5) The NADPH regenerating system (NRS) was 125 μL per tube. To PBS added 1.7 mg/ml NADP, 7.8 mg/ml glucose-6-phosphate, 6 units/mL glucose-6-phosphate dehydrogenase. Fresh NRS for each experiment was kept on ice until use. (6) Each reaction used 125 μL of NRS in each tube. (7) Removed liver microsome preparation from −80° C. freezer and thawed in a room temperature water bath. The microsomal preparation was at a concentration of 20 mg/ml. […] (13) The methyl-t-butyl ether was transferred from each tube to a fresh tube and the solvent was evaporated ether under nitrogen and the precipitate was then resuspended in 100 μL acetonitrile/water 35:65 and analyzed by LCMS.
Where [4] appears, read: 40 mg/kg/day oral gavage from onset of clinical disease, n = 3.

With `C#C[C@]1(O)CC[C@H]2[C@@H]3[C@@H](O)C=C4C[C@@H](O)CC[C@]4(C)[C@H]3CC[C@@]21C` [17α-ethynylandrost-5-ene-3β,7β,17β-triol], the “glucose infusion rate compared to the vehicle control” value in series [1] is “increased the glucose infusion rate”. Also, in series [2] (setting [4]), the “CD4^+Foxp3^+ cells in whole splenocytes” value is 1.34% ± 0.05 and the “Total Foxp3^+ cells in whole splenocytes” value is 2.39% ± 0.16. In series [2] (40 mg/kg/day, control animals 1.0%), the “Foxp3+ CD4^+ cells by cell sorter analysis” value stood at 1.4%. The “maximum mean clinical score” value in series [2] (at day 34, vehicle about 6.8-8 between days 34-49) is “about 5”. For the same compound, the mean clinical score entry in series [2] (by day 49) is on record as “about 3”. Moreover, the “parent remaining, rat microsome instead of mouse preparation” value in series [3] is on record as 86%* (30 min).
